Assay results taken from patent US5885994A, “Tetrahydroquinoxaline dopamine D4 receptor antagonists” (Warner-Lambert Company, priority 1998, dated 1999).
pIC50: −log10 of the molar value.

Experiments:
locomotor activity = experiment: Behavioral activity (locomotor activity) in the Omnitech Digiscan Animal Activity Monitors; format: in vivo, mice and rats
Description: PROTOCOL FOR THE BEHAVIORAL ACTIVITY ASSESSMENT OF MICE AND RATS IN THE OMNITECH DIGISCAN ANIMAL ACTIVITY MONITORS
The purpose of this test is to evaluate compounds for antipsychotic-like central nervous system (CNS) effects and a variety of other behavioral effects generally associated with CNS activity. […] Generally, however, drug effects on behavior are assessed using total distance traveled (in cm) as the most accurate measure of locomotor activity.
Male CD-1 albino mice weighing 20 to 40 g (Charles River Laboratories) or male Sprague-Dawley rats weighing 150 to 300 g (Harlan Laboratories) are used for these studies. […] Drug doses are expressed as the active moiety (taking into account the salt vs free base molecular weight of the drug). […]
Once the animal is placed in the activity chamber, the chambers are individually activated to begin collecting data. Activity levels are generally monitored with the overhead lights turned off, as the dark-stimulation tends to produce less variation in the data. […]
Data can be expressed as either actual counts, time (in sec), centimeters traveled, or percent inhibition of activity relative to vehicle-treated control animals tested concurrently. Significant changes in activity (i.e., cm traveled), relative to controls, are determined by t-test or analysis of variance and Newman-Keul's multiple-range test. […]

human DA D4.2 receptor = biological target: T1, human DA D4.2 receptor (Homo sapiens, UniProt P21917, DEL265-296); experiment: [3H]Thymidine uptake assay (block of quinpirole stimulation in CHO pro-5 cells transfected with human DA D4.2 receptor); format: cell-based; details: human D4.2, quinpirole-stimulated uptake
T1 construct: expressed in transfected cells
T1 sequence (P21917 with tags, fused parts or gaps DEL265-296): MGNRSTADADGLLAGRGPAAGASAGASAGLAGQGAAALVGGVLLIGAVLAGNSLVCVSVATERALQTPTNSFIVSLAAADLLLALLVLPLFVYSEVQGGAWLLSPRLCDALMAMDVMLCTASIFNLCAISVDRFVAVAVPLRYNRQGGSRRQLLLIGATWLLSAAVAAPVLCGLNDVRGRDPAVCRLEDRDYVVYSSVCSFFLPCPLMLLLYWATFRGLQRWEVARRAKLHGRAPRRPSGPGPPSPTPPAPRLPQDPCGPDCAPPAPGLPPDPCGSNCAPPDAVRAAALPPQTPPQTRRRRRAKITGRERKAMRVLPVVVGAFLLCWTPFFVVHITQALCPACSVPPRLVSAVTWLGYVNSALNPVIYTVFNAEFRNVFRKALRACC
Description: Compounds were tested for their ability to bind to dopamine (DA) receptors as measured by their inhibition of [^3 H]spiperone binding to the human D2, and D4.2 receptors (Pugsley, et al., 1995). The ability of test compounds to block the stimulation of [^3 H]thymidine uptake in CHO pro-5 cells transfected with human DA D4.2 receptor cDNA caused by the DA agonist quinpirole was employed as an in vitro measure of DA receptor antagonist activity (Pugsley, et al., 1995). The effects of compounds on synthesis rates of rat brain catecholamines were estimated by measuring the accumulation of [3-(3,4-dihydroxyphenyl)-L-alanine (DOPA) after administration of the L-aromatic amino acid decarboxylase inhibitor, NSD 1015 (Pugsley, et al., 1995).
[^3 H]Thymidine Uptake Assay
The effects of test compounds on [^3 H]thymidine uptake were carried out essentially as described by Pugsley, et al., 1995. CHO p-5 cells transfected with human D4.2 cDNA were seeded into 96-well plates at a density of about 5000 cells/well and were grown at 37° C. in a minimum essential medium (aMEM, Gibco) with 10% calf serum for 2 days. The wells were then rinsed three times with serum-free media. Fresh media ([…]) was added along with […] of test compound in water or vehicle alone. Eight wells of each plate received […] of aMEM with 10% fetal calf serum. After culture for 16 to 17 hours, [3H]thymidine ([…]) was added for 4 hours. The cells were trypsinized and harvested onto filter mats with a 96-well Brandel cell harvester. The filters were counted in a Beta-Plate scintillation counter.

[1] = system: synthesis rates of rat brain catecholamines; details: ip
Description: Test compounds were administered to rats i.p. 30 minutes before the injection of the L-aromatic amino acid decarboxylase inhibitor, NSD 1015 (100 mg/kg i.p.). Rats were sacrificed by decapitation 30 minutes later. The striatum and mesolimbic regions were rapidly dissected from the brains and stored at -70° C. until assayed. Synthesis rates of rat brain catecholamines were estimated by measuring the accumulation of the DA precursor DOPA after NSD 1015 administration by HPLC with electrochemical detection (Puglsey, et al., 1995). Each value represents the mean of four determinations and is expressed as a percent of the control values.

Cc1ccc(N2CCN(Cc3ccc4c(c3)NCCN4)CC2)cc1C [Example 2, 6-[4-(3,4-Dimethylphenyl)piperazin-1-ylmethyl]-1,2,3,4-tetrahydroquinoxaline]
Omnitech Digiscan Activity Monitor test (result in words) (locomotor activity; 1, 3, 10, 30 mg/kg IP): dose-dependent decrease
ED50 (locomotor activity; Mus musculus, ip): 16.5 mg/kg
pIC50 (human DA D4.2 receptor): 8.80
DA Synthesis in Rat Hippocampus [1]: +52% of the control values
DA Synthesis in Rat Striatum [1]: +66% of the control values
